Assay results: patent US11512073B2, “Benzimidazole derivatives, pharmaceutical composition comprising the same, and use thereof” (Chongqing University of Arts and Sciences, priority 2020, dated 2022)

What was measured:
[1] = system: MDA-MB-231 and MDA-MB-468 cells; assay: Colony forming assay; format: cell-based, Human; conditions: 0, 5, 10, 20 μmol/L
Protocol: MAD-MB-231 and MDA-MB-468 cells were seeded in a six-well plate at 1000 cells/well and treated with various concentrations of compound 7a (0, 5, 10, 20 μmol/L) for 48 h. After discarding the supernatant, the cells were cultured with fresh medium for 15 days until formed the visible colonies. Finally, colonies were fixed with 4% paraformaldehyde (PFA) and stained with crystal violet for 30 min to enable enumeration of colonies.

TNBC cells [2] = assay: Cell counting assay with microscope; format: cell-based, Human; conditions: 48 h
Protocol: FIG. 2A: cell viability was measured with the MTT assay. MDA-MB-231 and MDA-MB-468 cells were exposed to the indicated concentrations of compound 7a for 24, 48 and 72 h. FIGS. 2B and 2C: cell morphology and cell count of MDA-MB-231 and MDA-MB-468 cells were captured with microscope after treating with the indicated concentrations of compound 7a for 48 h. These cells were visualized with the images and quantitated by histogram, Scale bar, 100 μm. FIGS. 2D and 2E: colony formation assay was performed to evaluate TNBC growth in vitro after treatment with the indicated concentrations of compound 7a for 14 days. The colonies were visualized with the images and quantitated by histogram.

MDA-MB-231 xenograft = assay: Animal xenograft model; format: in vivo, NOD/SCID mice
Protocol: For the in vivo assay, six-week-old female NOD/SCID mice weighing 16-20 g were used, which were maintained in the SPF (Specific Pathogen Free) laboratory animal environment and under a normal daily light/dark cycle. During the experiment, 1×10^7 MDA-MB-231 cells were suspended in 100 μL serum-free DMEM and injected subcutaneously into the left groin region of the mice. Tumor volume was measured regularly. On day 22 post-tumor implanted, the NOD/SCID mice were randomly divided into three groups (n=6) on the basis of their tumor volume to insure a similar starting tumor volume of all the groups. The appropriate dose of compound 7a (5 mg/kg, 15 mg/kg) dissolved in 100 μL solvent (10% ethanol, 40% PEG400 and 50% corn oil) was administered every 3 days by intraperitoneal injection when the xenograft tumor volume attained around 100 mm^3, while the control group received equal volume solvent every 3 days in a similar method. The tumor size was measured once every 3 days with a caliper, and tumor size was calculated using the standard formula (L×W^2)/2, where L and W represents the length and width, respectively. The mice were sacrificed on Day 46 (Day 25 after treatment), and the xenograft tumors were obtained and weighed. Then the tumor tissues were collected and divided into two portions, one was fixed in 4% PFA and embedded by paraffin for Hematoxylin & eosin (HE) and immunohistochemical staining, anther was performed immunoblotting.
For immunohistochemistry, the embedded samples were sectioned and incubated with anti-Ki-67 overnight at 4° C. Then, the sections were incubated with HRP labeled secondary antibody and were observed under the Olympus BX73 microscope. Five fields were randomly selected to evaluate the positivity.

MDA-MB-468 cells = assay: MTT cell viability assay; format: cell-based; conditions: Homo sapiens
Protocol: (§1) Compounds were dissolved in a hydrous dimethylsulfoxide (DMSO, Life technologies) to obtain a 50 mM stock solution, which was then added to the culture medium at a concentration range of 6.25-100 μM. Cells were treated with compounds at indicated concentrations for 48 h, and 0.1% DMSO was used as the vehicle. Z-VAD-FMK was purchased from Selleckchem (Houston, Tex.); The reagents including 3-(4,5-dimethylthiazol-2-yl)-2,5-diphenyltetrazolium bromide (MTT), dimethyl sulfoxide (DMSO), penicillin, streptomycin, propidium iodide (PI) were purchased from Sigma-Aldrich (MO, USA); All the primary antibodies used in this study were from Cell Signaling Technology (MA, USA) and the secondary antibodies were from LI-COR Biosciences (NE, USA).
(§2) Human triple negative breast cancer cell lines MDA-MB-231 and MDA-MB-468 were purchased from the American Type Culture Collection (ATCC, VA, USA). These cells were cultured in high-glucose DMEM (Gibco, USA) supplemented with 10% fetal bovine serum (FBS, Gibco) and 1% penicillin/streptomycin (Gibco) at 37° C. in a humidified incubator containing 5% CO2.
(§3) The antiproliferative activity of compounds was measured with the MTT assay. […] The absorbance value was determined at 570 nm using a microplate reader (Bio-Tek, VT, USA). Data were analyzed by GraphPad Prism 6. […]

MDA-MB-231 cells = assay: MTT cell viability assay; format: cell-based; conditions: Homo sapiens
Protocol: as §1, §2, §3

TNBC cells [3] = assay: Ki67-staining immunofluorescence; format: cell-based, Human; conditions: 48 h, versus controls
Protocol: Cells were plated on glass coverslips in 24-well plates prior to treatment. After being exposed to different doses of compound 7a for 48 h, cells were washed with PBS for three times, fixed with 4% paraformaldehyde-PBS for 30 min, and then followed by permeabilization with 0.1% Triton X-100 for 10 min. Next, the samples were blocked with QuickBlock Blocking Buffer for Immunol Staining (Beyotime) for 30 min at 37° C., and incubated with anti-Ki67 (1:250), anti-LC3B antibody (1:250), anti-SQSTM1 antibody (1:250) or anti-γH2AX (1:250) overnight at 4° C. After washing with PBS three times, the stained cells were incubated with Alexa Fluor-conjugated secondary antibodies (1:2000) for 1 hour at room temperature. Moreover, 1 mg/mL DAPI dissolved in PBS were employed to label nuclei (30 min). Images were captured with a High Content analysis system (Perkinelmer, MA, USA).

TNBC cells [4] = assay: MTT cell viability assay, statements for both TNBC lines; format: cell-based, Human; conditions: MDA-MB-231 and MDA-MB-468; 24, 48 and 72 h
Protocol: as §1, with “Cells were treated with compounds at indicated concentrations for 48 h, and 0.1% DMSO was used as the vehicle.” left out
as §2, §3

- IC50 (MDA-MB-468 cells): 6 µM
- IC50 (MDA-MB-231 cells): 8.3 µM
Compound: O=C(NC1CCCCC1)c1[nH]cnc1-c1nc2ccccc2[nH]1 [Compound 7a]
- colony formation [1]: smaller and decreased colony numbers
- proliferation by cell count (TNBC cells [2]): significantly inhibited proliferation of TNBC cells
- tumor growth (tumor volume and weight) (MDA-MB-231 xenograft; 5 and 15 mg/Kg, intraperitoneal, after 24 days, dose dependent): considerably suppressed human TNBC tumor growth
- size of harvested tumors (MDA-MB-231 xenograft; 5 and 15 mg/kg, intraperitoneal, every 3 days): dramatically smaller than tumors from vehicle-treated control mice
- LC3B-II, p62, γH2AX and PARP in tumor tissue (MDA-MB-231 xenograft; immunoblotting of tumors, 5 and 15 mg/kg): concentration-dependent upregulation of LC3B-II, p62, γH2AX and PARP
- cell count (H&E) and Ki67 in tumor tissue (MDA-MB-231 xenograft; immunohistochemistry of tumors): significant decrease in cell count and Ki67
- rate of Ki67-positive cells (TNBC cells [3]): notably reduced rate of Ki67-positive cells
- TNBC cell viability (TNBC cells [4]): efficiently inhibited TNBC cell viability in a time- and dose-dependent manner
